Measurements reported in patent EP1100482B1, “USE OF CALIX(N)ARENES IN THE MANUFACTURE OF A MEDICAMENT FOR TREATING FIBROTIC DISEASES” (CENTRE NATIONAL DE LA RECHERCHE SCIENTIFIQUE, priority 1998, dated 2000).
Numbering of substitutions follows the chain as printed. pIC50, pKi: −log10 of the molar value.

Key:
[1] = target: T1, lysyl-oxydase d'aorte bovine (Bos taurus, UniProt P33072); assay: Lysyl oxidase activity assay (tritium release from 3H elastin); assay type: biochemical; settings: partially purified lysyl oxidase from fetal bovine aorta; 3H élastine substrate; 37°C; pH 8,0; read-out: concentration nécessaire pour inhiber 50% de l'activité de lysyl-oxydase
T1 construct: De l'aorte bovine foetale broyée est rincée par du tampon NaCI 0,12M; from tissue; host or cells: fetal bovine aorta
T1 sequence (P33072 170-418): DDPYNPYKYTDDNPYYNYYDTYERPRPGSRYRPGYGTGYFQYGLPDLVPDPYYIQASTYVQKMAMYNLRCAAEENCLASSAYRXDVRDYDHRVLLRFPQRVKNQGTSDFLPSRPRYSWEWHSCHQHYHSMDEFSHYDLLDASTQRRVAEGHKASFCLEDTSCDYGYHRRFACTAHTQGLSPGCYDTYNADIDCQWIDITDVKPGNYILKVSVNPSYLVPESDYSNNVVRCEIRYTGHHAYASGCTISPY
Description: 1. Purification partielle de la lysyl-oxydase d'aorte bovine
Ce protocole est inspiré de celui de (WILLIAMS et KAGAN, Anal. Biochem. 149, 430-437, 1985), et de (KAGAN et al. Biochem. J. 177, 203-214 (1979)), qui a été sensiblement modifié.
Toutes les étapes sont effectuées à 4 °C ou dans la glace.
De l'aorte bovine foetale broyée est rincée par du tampon NaCI 0,12M, NaPi 16 mM, pH 7,7 puis par du NaPi 16 mM, pH 7,7 (tampon PB). La lysyl oxydase est extraite du résidu par de l'urée 4 M (concentration finale dans le tampon PB). Le surnageant obtenu après centrifugation à 10.000 g pendant 30 minutes est dilué deux fois dans du PB puis incubé avec de la DEAE-cellulose pendant 3 heures. La résine est mise en colonne et rincée successivement par du tampon PB contenant de l'urée 2M , du tampon PB puis du tampon PB contenant du NaCI 0,4 M.
La lysyl oxydase est éluée à partir de la DEAE-cellulose par de l'urée 6M dans du tampon PB. Les fractions présentant une absorbance à 280 nm sont réunies et dialysées pendant une nuit contre du tampon PB en présence de gel de Bleu de Cibacron (Biorad). Le gel est ensuite mis en colonne, et après des rinçages successifs par du tampon PB, du tampon PB-NaCI 1M et à nouveau du tampon PB, la lysyl oxydase est éluée du gel de Bleu de Cibacron par de l'urée 6 M dans du tampon PB. […]

[2] = target: T2, lysyl oxydase (Homo sapiens, UniProt P28300); settings: specific lysyl oxidase inhibitor described in the literature (Kagan, 1994); cited from earlier work
T2 sequence (P28300 169-417): T1 sequence (P33072 170-418) with T10S, S29G, P49A, A64S, S80T, X84A, S142N, N188G, S224T, E231D

pIC50 [1]	Compound	pKi [2]
2.92	O=S(=O)(O)c1cc2c(O)c(c1)Cc1cc(S(=O)(=O)O)cc(c1O)Cc1cc(S(=O)(=O)O)cc(c1O)Cc1cc(S(=O)(=O)O)cc(c1O)Cc1cc(S(=O)(=O)O)cc(c1O)Cc1cc(S(=O)(=O)O)cc(c1O)C2	
	N#CCCN [βAPN, β amino-propionitrile]	5.22
